Source: patent US9040527B2, “Pyrimidinediamine kinase inhibitors” (Rigel Pharmaceuticals, Inc., priority 2008, dated 2015)

Molecular target: PLK1 (Homo sapiens, UniProt P53350)
Experiment: Cellular PLK1 assay in K562 cells overexpressing CDC25C
Assay type: cell-based
Set-up: endogenous in cells; host or cells: K562 (human chronic myelogenous leukemia) overexpressing CDC25C, nocodazole-arrested
Settings: nocodazole arrested, cdc25c p-Ser198 readout
Procedure: Inhibition of PLK1 was measured by quantifying phosphorylation of PLK1 substrates using chemiluminescent and fluorogenic probes. The protocols for these assays are provided below.
1. Culturing of K562 Cells
Human chronic myelogenous leukemia K562 cells (American Tissue Culture Collection) overexpressing CDC25C, were grown in Growth Medium having the following composition: Iscove Dulbecco's Modified Eagle's Medium (“Iscove DMEM”, Mediatech/Cellgro, Cat. #10-013-CV), 10% Fetal Bovine Serum (“FBS”, SAFC Biosciences, Cat. #12106-500M), and 1% penicillin/streptomycin (“pen-strep”, Mediatech/Cellgro, Cat. #30-002-CI). The cells were plated in 96 well round bottom tissue culture plates (Fisher, Costar* Cell Culture plates, Cat. #07-200-95) at 100,000 cells per 50 μL of Growth Medium per well. Nocodazole (Sigma, Cat. # M1404) was added to the growth media to arrest the cells in the G2 or M phase, at 333 nM concentration. The cells were incubated with nocodazole for 18 hours at 37° C. prior to addition of tested compounds.
2. Treatment of Cells with the Tested Compounds
Solutions of tested compounds in DMSO at different concentrations were prepared using serial dilutions. Each compound was tested at 8 concentration points, 10 μM, 3.3 μM, 1.11 μM, 0.37 μM, 0.12 μM, 0.04 μM, 0.014 μM, 0.005 μM, duplicate replicates.
Two controls were performed: “DMSO alone” control in which nocodazole and DMSO were present but no compounds were added, and “nocodazole alone” control, in which only nocodazole was present, but neither DMSO nor compounds were added.
The solutions of compounds were prepared by diluting 10 mM compound 1:1 in DMSO (5 μL 10 mM compound and 5 μL DMSO), followed by 1:3 serial dilutions of compound in DMSO performed by diluting 3 μL of higher concentration compound solution serially into 6 μL DMSO to give 3-fold dilutions. Next, 3 μL of each compound solution at each concentration was transferred to 750 μL of Growth Medium. In “DMSO alone” control 3 μL of DMSO alone was added to 750 μL of Growth Medium.
After the diluted compounds were mixed well in the Growth Medium, 50 μL of each compound solution in DMSO/Growth Medium was transferred to each well of the 96-plate containing cells in 50 μL of Growth Medium/Nocodazole.
The cells and compounds were incubated for 120 minutes at 37° C., in an atmosphere containing 5% CO2.
3. Fixation and Permeabilization of the Cells
After the cells were incubated with compounds, the cells were spun down at 1,000 rpm for 5 minutes at 4° C. and supernatants were removed by flicking the plates. Cells were then washed with 200 μl of ice cold PBS, spun down again and supernatants removed. Cells were then fixed and permeabilized by addition of 100 μL/well of Fixation and Permeabilization Solution (1× buffer provided in BD Biosciences Cytofix/Cytoperm™ Fixation/Permeabilization kit, Cat. #554714) and incubation for 20 minutes at room temperature. The fixative was then removed by centrifugation (5 minutes at 2,000 rpm), and plates were flicked to remove the fixative and washed twice, each time with 200 μL/well BD Perm/Wash buffer (10× concentrate provided in BD Biosciences Cytofix/Cytoperm™ Fixation/Permeabilization kit, Cat. #554714, 1× buffer prepared by dilution in distilled H2O).
Cells were spun down at 1,000 rpm for 5 minutes at 4° C. Supernatants were removed by flicking the plates. A solution of a primary antibody specific for cdc25cp-Ser198 was prepared by diluting Rabbit cdc25c (Ser198) antibody (Cell Signaling, #9529L) 1:50 in a Fluorescence Activated Cell Sorting (“FACS”) Buffer (2% FBS in PBS). The cell pellets were resuspended in 50 μL of the primary antibody solution. 50 μL of FACS buffer was added to unstained controls. Staining was allowed to proceed overnight at room temperature.
The plates were then washed by addition of 200 μL of FACS Buffer to each well, were centrifuged and the supernatant was removed. […]

Sequence of PLK1 (P53350 whole entry): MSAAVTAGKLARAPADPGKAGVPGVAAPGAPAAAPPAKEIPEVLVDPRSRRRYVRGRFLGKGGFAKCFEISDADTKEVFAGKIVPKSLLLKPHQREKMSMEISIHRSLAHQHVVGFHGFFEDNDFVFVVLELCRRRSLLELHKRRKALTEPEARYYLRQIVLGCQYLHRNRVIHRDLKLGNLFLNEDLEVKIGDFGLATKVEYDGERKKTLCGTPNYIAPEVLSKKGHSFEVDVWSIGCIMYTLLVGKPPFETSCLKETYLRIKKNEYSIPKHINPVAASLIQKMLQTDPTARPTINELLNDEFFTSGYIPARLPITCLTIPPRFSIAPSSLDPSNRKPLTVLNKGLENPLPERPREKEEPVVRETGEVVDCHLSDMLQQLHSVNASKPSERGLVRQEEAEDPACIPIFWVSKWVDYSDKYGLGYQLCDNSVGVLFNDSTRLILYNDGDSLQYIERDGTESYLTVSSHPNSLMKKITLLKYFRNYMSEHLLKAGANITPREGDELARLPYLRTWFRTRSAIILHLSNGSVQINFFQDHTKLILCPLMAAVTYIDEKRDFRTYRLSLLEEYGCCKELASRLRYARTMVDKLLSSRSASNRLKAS

IC50 | Structure (SMILES)
≥ 10 µM | CCOC(=O)N1CCN(c2cccc(Nc3ncc(F)c(Nc4ccc5c(n4)NCCO5)n3)c2)CC1 [compound 165, ethyl 4-(3-(4-(3,4-dihydro-2H-pyrido[3,2-b][1,4]oxazin-6-ylamino)-5-fluoropyrimidin-2-ylamino)phenyl)piperazine-1-carboxylate]
≥ 10 µM | CCOC(=O)N1CCN(c2ccc(Nc3ncc(F)c(Nc4ccc5c(n4)NCCO5)n3)cc2)CC1 [compound 163, ethyl 4-(4-(4-(3,4-dihydro-2H-pyrido[3,2-b][1,4]oxazin-6-ylamino)-5-fluoropyrimidin-2-ylamino)phenyl)piperazine-1-carboxylate]
≥ 10 µM | Cc1cnc(Nc2ccc(N3CCN(C)CC3)cc2)nc1Nc1ccc2c(n1)NC(=O)C(C)(C)O2 [compound 88, 2,2-dimethyl-6-(5-methyl-2-(4-(4-methylpiperazin-1-yl)phenylamino)pyrimidin-4-ylamino)-2H-pyrido[3,2-b][1,4]oxazin-3(4H)-one]
≥ 10 µM | Cc1cnc(Nc2ccc(N3CCN(C)CC3)nc2)nc1Nc1ccc2c(c1)N(C)C(=O)C(C)(C)O2 [compound 202, 2,2,4-trimethyl-6-(5-methyl-2-(6-(4-methylpiperazin-1-yl)pyridin-3-ylamino)pyrimidin-4-ylamino)-2H-benzo[b][1,4]oxazin-3(4H)-one]
≥ 10 µM | CN1CCN(c2ccc(Nc3ncc(F)c(Nc4ccc5c(n4)NCCO5)n3)cc2)CC1 [compound 166, N4-(3,4-dihydro-2H-pyrido[3,2-b][1,4]oxazin-6-yl)-5-fluoro-N2-(4-(4-methylpiperazin-1-yl)phenyl)pyrimidine-2,4-diamine]
≥ 10 µM | CCN1CCN(c2ccc(Nc3ncc(C)c(Nc4ccc5c(n4)NC(=O)C(C)(C)O5)n3)cc2)CC1 [compound 92, 6-(2-(4-(4-ethylpiperazin-1-yl)phenylamino)-5-methylpyrimidin-4-ylamino)-2,2-dimethyl-2H-pyrido[3,2-b][1,4]oxazin-3(4H)-one]
≥ 10 µM | Cc1cc(Nc2ncc(C)c(Nc3ccc4c(n3)N(C)C(=O)C(C)(C)O4)n2)ccc1N1CCN(C)CC1 [compound 98, 2,2,4-trimethyl-6-(5-methyl-2-(3-methyl-4-(4-methylpiperazin-1-yl)phenylamino)pyrimidin-4-ylamino)-2H-pyrido[3,2-b][1,4]oxazin-3(4H)-one]
≥ 10 µM | CCN1CCN(c2ccc(Nc3ncc(C)c(Nc4ccc5c(n4)N(C)C(=O)C(C)(C)O5)n3)cc2)CC1 [compound 94, 6-(2-(4-(4-ethylpiperazin-1-yl)phenylamino)-5-methylpyrimidin-4-ylamino)-2,2,4-trimethyl-2H-pyrido[3,2-b][1,4]oxazin-3(4H)-one]
≥ 10 µM | CCN1CCN(c2ccc(Nc3ncc(C)c(Nc4ccc5c(n4)N(C)C(=O)CO5)n3)cc2)CC1 [compound 91, 6-(2-(4-(4-ethylpiperazin-1-yl)phenylamino)-5-methylpyrimidin-4-ylamino)-4-methyl-2H-pyrido[3,2-b][1,4]oxazin-3(4H)-one]
≥ 10 µM | CC(=O)N1CCN(c2cccc(Nc3ncc(F)c(Nc4ccc5c(n4)NCCO5)n3)c2)CC1 [compound 164, 1-(4-(3-(4-(3,4-dihydro-2H-pyrido[3,2-b][1,4]oxazin-6-ylamino)-5-fluoropyrimidin-2-ylamino)phenyl)piperazin-1-yl)ethanone]
